Test results as given in publication PMC12736194, “1-Azinyl-1′-Alkenylferrocenes with Anticholinesterase, Antioxidant, and Antiaggregating Activities as Multifunctional Agents for Potential Treatment of Alzheimer’s Disease” (Pharmaceuticals, 2025).

Assays:
[1] = molecular target: T1, human (Homo sapiens) erythrocyte AChE (HsAChE) (Homo sapiens, UniProt P22303); assay: Inhibition of HsAChE (spectrophotometric, ATCh iodide substrate); type: biochemical; conditions: K/Na-phosphate buffer pH 7.5, 25 °C; mean ± SEM, n = 3
T1 construct: human (Homo sapiens) erythrocyte AChE (HsAChE); purchased Sigma-Aldrich; host or cells: human erythrocytes
Description: (§1) In these experiments, human (Homo sapiens) erythrocyte AChE (HsAChE), equine (Equus caballus) serum BChE (EcBChE), and porcine (Sus scrofa) liver CES (SsCES) were used because of their ready availability, relatively low cost, and high sequence homology of EcBChE and SsCES to the corresponding human enzymes.
(§2) Enzymes, substrates, and reference compounds were sourced from Sigma-Aldrich (St. Louis, MO, USA). Enzyme activity was measured spectrophotometrically according to [91] using ATCh iodide, BTCh iodide, and 4-NPA as substrates for HsAChE, EcBChE, and SsCES, respectively. Experimental conditions included a K/Na-phosphate buffer (100 mM), at 25 °C, with pH 7.5 for AChE and BChE assays, and pH 8.0 for CES assays. Measurements were conducted on a BioRad Benchmark Plus microplate spectrophotometer (Hercules, CA, USA). Test compounds were dissolved in DMSO with a final solvent concentration of 2% (v/v) in the incubation mixture.

[2] = system: human neuroblastoma cell cultures (SH-SY5Y); assay: Cytotoxicity, MTT test, SH-SY5Y; conditions: read-out: Cytotoxic activity, LC50, SH-SY5Y, 24 h, 1 to 1024 μM, mean ± SE, n = 3
Description: (§3) Cytotoxic activity was assessed using the MTT test. […] For each compound, the half-lethal concentration parameter LC50 (μM) was calculated.
(§4) This study employed SH-SY5Y neuroblastoma cells and dental pulp-derived mesenchymal stem cells (MSC-DP). Cells were cultured in DMEM/F12 with 10% (v/v) FBS under standard conditions. MSC-DP were reprogrammed into neuronal-like cells (MSC-Neu) using Neurobasal medium with addition of Neuromax and 3% (v/v) FBS for 5 days.
(§5) The cytotoxic effect of Fcs was assessed using the Mossman test for cellular dehydrogenase activity (MTT test). […] For each compound, the half-lethal concentration parameter (LC50) in μM was calculated as described previously.

[3] = Ferric reducing antioxidant power (FRAP) assay; conditions: Trolox equivalents; acetate buffer pH 3.6, 1 h, 37 °C
[4] = system: porcine (Sus scrofa) liver CES (SsCES); assay: Inhibition of SsCES (spectrophotometric, 4-NPA substrate); type: biochemical; conditions: compound 20 μM; n.a. = not active; mean ± SEM, n = 3
Excerpt: as §1
Although the dominant carboxylesterase in porcine liver is CES1 [64], the preparation sourced from Sigma-Aldrich is not a purified or recombinant CES1. Therefore, we have designated the preparation used in our experimental studies as SsCES. However, in computational molecular docking studies, it is necessary to choose a single defined protein as the docking target. Thus, the logical choice for our computational studies of CES was the most abundant and best characterized isoform found in porcine liver, which is SsCES1.
as §2

[5] = ABTS radical cation scavenging activity assay; conditions: ethanol, 1 h; for IC50: ABTS^•+ 100 μM; for ABTS^•+-Scavenging Activity, TEAC: Trolox equivalent antioxidant capacity, mean ± SEM, n = 3
[6] = molecular target: T2, human β-amyloid (1–42) (HsAβ42) (Homo sapiens, UniProt P05067); assay: Inhibition of HsAβ42 self-aggregation (thioflavin T fluorescence); type: biochemical; conditions: HsAβ42 50 µM, compound 100 µM, 24 h, 37 °C; n.a. = not active
T2 construct: purchased AnaSpec Inc
Description: The potential of compounds from all three groups (1a-e, 5a-e, 7a-d) to inhibit HsAβ42 self-aggregation was evaluated using a Thioflavin T (ThT) fluorescence assay.
Inhibition of HsAβ42 self-aggregation by test compounds was studied using the thioflavin T (ThT) fluorescence method with minor modifications as described in detail in [79]. Lyophilized HFIP-pretreated HsAβ42 (AnaSpec Inc., Fremont, CA, USA, 0.5 mg) was dissolved in DMSO to obtain a stable 500 μM solution. The samples of 50 μM HsAβ42 in 215 mM Na-phosphate buffer pH 8.0 were incubated for 24 h at 37 °C in the absence or presence of 100 μM test compounds. Myricetin in the same concentration was used as a reference. After incubation, 5 μM ThT in 50 mM glycine-NaOH buffer pH 8.5 was added, and the fluorescence was measured at 440 nm (exc.) and 485 nm (emis.) with a FLUOStar Optima microplate reader. Blanks consisted of 215 mM Na-phosphate buffer, pH 8.0, 20% (v/v) DMSO or test compounds, respectively. The inhibition (%) of HsAβ42 self-aggregation by the test compounds was calculated.

[7] = molecular target: T3, peripheral anionic site (PAS) of Electrophorus electricus AChE (EeAChE) (Electrophorus electricus, UniProt O42275); assay: Propidium displacement from the EeAChE PAS (fluorescence); type: binding; conditions: compound concentration 20 µM; EeAChE 7 μM, propidium iodide 8 μM, Tris-HCl pH 8.0; n.a. = not active
T3 construct: purchased Sigma-Aldrich type VI-S
Description: A fluorescence-based assay assessed the ability of test compounds to competitively displace propidium iodide from AChE’s PAS [65, 93]. […] EeAChE (7 μM) was incubated with 20 μM test compounds in Tris-HCl buffer (pH 8.0) for 15 min, followed by addition of propidium iodide (8 μM) as described in detail in [95]. Fluorescence readings (530 nm excitation, 600 nm emission) were obtained using a FLUOStar Optima microplate reader (LabTech, Ortenberg, Germany). Displacement (%) was calculated.

[8] = system: reprogrammed human neuronal cell cultures (MSC-Neu); assay: Cytotoxicity, MTT test, MSC-Neu; conditions: read-out: Cytotoxic activity, LC50, MSC-Neu, 24 h, 1 to 1024 μM, mean ± SE, n = 3
Description: as §3, §4, §5

[9] = molecular target: T4, equine (Equus caballus) serum BChE (EcBChE) (Equus caballus, UniProt P81908); assay: Inhibition of EcBChE (spectrophotometric, BTCh iodide substrate); type: biochemical; conditions: K/Na-phosphate buffer pH 7.5, 25 °C; mean ± SEM, n = 3
T4 construct: equine (Equus caballus) serum BChE (EcBChE); purchased Sigma-Aldrich; host or cells: horse serum
Description: as §1, §2

MCF7 cell line = conditions: Figure 12; read-out: LC50, MCF7 cell line; cited from earlier work
[10] = cited from earlier work
HsAChE = molecular target: T5, HsAChE (Homo sapiens, UniProt P22303); assay: Kinetic study of HsAChE inhibition (Lineweaver-Burk); type: biochemical
T5 construct: human (Homo sapiens) erythrocyte AChE (HsAChE); purchased Sigma-Aldrich; host or cells: human erythrocytes
Description: (§6) . To determine the relationship between enzyme activity and inhibitor concentration at different substrate levels, we conducted kinetic assays. The kinetic data analysis, using Lineweaver–Burk plots, is shown in Figure 2A and Figure 2B for HsAChE and EcBChE, respectively.
(§7) To investigate the mechanisms of HsAChE and EcBChE inhibition, enzyme kinetics were analyzed (detailed in [92]). After a 5 min equilibration at 25 °C with three different inhibitor concentrations and six substrate concentrations, residual enzyme activity was measured as described. Lineweaver–Burk plots (1/V vs. 1/[S]) were used to determine competitive (Ki) and non-competitive (αKi) inhibition constants.

EcBChE = molecular target: T6, EcBChE (Equus caballus, UniProt P81908); assay: Kinetic study of EcBChE inhibition (Lineweaver-Burk); type: biochemical
T6 construct: equine (Equus caballus) serum BChE (EcBChE); purchased Sigma-Aldrich; host or cells: horse serum
Description: as §6, §7

T4 sequence (P81908 whole entry): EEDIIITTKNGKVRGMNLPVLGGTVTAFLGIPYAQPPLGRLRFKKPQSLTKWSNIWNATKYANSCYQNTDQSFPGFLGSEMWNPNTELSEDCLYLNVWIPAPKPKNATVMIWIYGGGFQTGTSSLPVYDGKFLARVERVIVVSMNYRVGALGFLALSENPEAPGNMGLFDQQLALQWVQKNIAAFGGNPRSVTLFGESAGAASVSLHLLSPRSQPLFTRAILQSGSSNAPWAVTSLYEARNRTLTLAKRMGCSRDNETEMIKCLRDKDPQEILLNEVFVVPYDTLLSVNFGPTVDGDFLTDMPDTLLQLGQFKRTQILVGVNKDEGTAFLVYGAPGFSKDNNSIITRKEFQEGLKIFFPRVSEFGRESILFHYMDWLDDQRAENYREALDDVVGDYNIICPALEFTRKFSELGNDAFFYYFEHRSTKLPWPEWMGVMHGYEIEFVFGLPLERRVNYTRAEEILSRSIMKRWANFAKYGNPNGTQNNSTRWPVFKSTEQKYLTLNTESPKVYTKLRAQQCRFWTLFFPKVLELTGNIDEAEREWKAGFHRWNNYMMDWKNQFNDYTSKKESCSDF
T6 sequence (P81908 whole entry): as above
T2 sequence (P05067 672-713 limits assumed): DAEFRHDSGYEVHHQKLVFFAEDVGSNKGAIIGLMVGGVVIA
T5 sequence (P22303 32-617 isoform P22303-2 limits assumed): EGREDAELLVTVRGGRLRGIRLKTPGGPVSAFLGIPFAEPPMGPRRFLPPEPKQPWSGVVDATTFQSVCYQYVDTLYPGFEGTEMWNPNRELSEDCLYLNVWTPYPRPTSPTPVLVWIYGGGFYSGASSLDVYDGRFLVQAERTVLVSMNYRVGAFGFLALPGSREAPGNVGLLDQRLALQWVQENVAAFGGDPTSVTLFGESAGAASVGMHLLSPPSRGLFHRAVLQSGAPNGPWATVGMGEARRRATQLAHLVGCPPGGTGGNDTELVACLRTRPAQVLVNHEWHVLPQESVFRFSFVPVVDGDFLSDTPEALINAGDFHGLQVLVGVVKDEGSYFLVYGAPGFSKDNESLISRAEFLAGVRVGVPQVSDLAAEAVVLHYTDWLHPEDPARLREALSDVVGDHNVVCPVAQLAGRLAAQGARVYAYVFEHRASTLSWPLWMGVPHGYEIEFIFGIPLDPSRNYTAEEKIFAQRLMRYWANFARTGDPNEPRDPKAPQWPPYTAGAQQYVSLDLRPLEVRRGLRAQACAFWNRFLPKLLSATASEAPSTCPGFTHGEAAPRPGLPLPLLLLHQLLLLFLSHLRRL
T1 sequence (P22303 32-617 isoform P22303-2 limits assumed): as above
T3 sequence (O42275 24-633): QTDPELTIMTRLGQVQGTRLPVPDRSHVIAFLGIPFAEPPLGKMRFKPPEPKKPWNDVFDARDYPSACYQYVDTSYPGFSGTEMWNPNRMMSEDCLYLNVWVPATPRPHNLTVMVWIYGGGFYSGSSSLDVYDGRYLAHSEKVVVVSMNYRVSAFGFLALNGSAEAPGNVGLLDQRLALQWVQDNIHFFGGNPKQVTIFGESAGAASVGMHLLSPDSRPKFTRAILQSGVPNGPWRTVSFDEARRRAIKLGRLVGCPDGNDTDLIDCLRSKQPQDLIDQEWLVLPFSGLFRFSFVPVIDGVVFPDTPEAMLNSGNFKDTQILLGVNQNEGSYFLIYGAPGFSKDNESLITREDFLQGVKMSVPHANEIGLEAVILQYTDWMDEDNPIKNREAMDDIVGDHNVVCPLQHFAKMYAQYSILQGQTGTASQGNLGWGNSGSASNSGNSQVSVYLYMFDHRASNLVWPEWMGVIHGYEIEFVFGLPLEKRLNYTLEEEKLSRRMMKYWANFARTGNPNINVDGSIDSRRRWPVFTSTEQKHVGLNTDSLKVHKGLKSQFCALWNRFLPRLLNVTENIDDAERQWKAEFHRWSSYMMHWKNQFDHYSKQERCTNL

Structure (SMILES) | IC50 [1] | CC50 [2] | Ferric Reducing Antioxidant Power, TE [3] | Inhibition of SsCES, % inhibition at 20 μM [4] | IC50 [5] | ABTS^•+-Scavenging Activity, TEAC [5] | HsAβ42 self-Aggregation Inhibition, (%) [6] | Propidium Displacement, (%) [7] | CC50 [8] | IC50 [9] | CC50 (MCF7 cell line) | Experimental pKa [10] | noncompetitive component of inhibition constant (αKi), HsAChE (HsAChE) | type of inhibition, HsAChE (HsAChE; Vmax and Km both change) | Ki (HsAChE; read-out: competitive component of inhibition constant (Ki), HsAChE) | noncompetitive component of inhibition constant (αKi), EcBChE (EcBChE) | type of inhibition, EcBChE (EcBChE; Vmax and Km both change) | Ki (EcBChE; read-out: competitive component of inhibition constant (Ki), EcBChE)
[Fe+2].c1cc[cH-]c1.c1ccc2nc(-[c-]3cccc3)ccc2c1 [1b] | 68.1 ± 3.4 µM | 243 ± 27.4 µM | 2.21 ± 0.01 | 29.8 ± 2.0% | 6.6 ± 0.3 µM | 4.2 ± 0.2 | 79.5 ± 6.3% | 10.2 ± 0.8% | 393 ± 13.2 µM | 2.7 ± 0.19 µM | – | – | – | – | – | – | – | –
C=C(C)[c-]1cccc1.[Fe+2].c1ccc(-c2cccc(-[c-]3cccc3)n2)nc1 [5d] | 5.12 ± 0.41 µM | 189 ± 19.3 µM | 1.47 ± 0.06 | – | 20.8 ± 0.1 µM | 0.94 ± 0.05 | 83.8 ± 4.2% | 8.2 ± 0.6% | 414 ± 18.6 µM | 4.86 ± 0.39 µM | – | – | – | – | – | – | – | –
CCC(=C(c1ccc(O)cc1)c1ccc(O)cc1)[c-]1cccc1.[Fe+2].c1cc[cH-]c1 [Ferrocifenol] | – | – | – | – | – | – | – | – | – | – | 0.9 µM | – | – | – | – | – | – | –
C=C(C)[c-]1cccc1.[Fe+2].c1ccc2nc(-[c-]3cccc3)ccc2c1 [5b] | 4.01 ± 0.28 µM | 281 ± 30.1 µM | 3.13 ± 0.17 | 35.4 ± 2.8% | 5.6 ± 0.3 µM | 4.3 ± 0.2 | 82.9 ± 6.6% | 11.5 ± 0.8% | 564 ± 31.8 µM | 9.91 ± 0.69 µM | – | – | – | – | – | – | – | –
c1ccc(-c2ccccn2)nc1 [Bipyridine] | – | – | – | – | – | – | – | – | – | – | – | 4.35 | – | – | – | – | – | –
[Fe+2].c1cc[cH-]c1.c1ccc(-c2cccc(-[c-]3cccc3)n2)nc1 [1d] | 7.89 ± 0.63 µM | 152 ± 21.2 µM | 1.77 ± 0.04 | 20.9 ± 1.6% | 20.6 ± 1.5 µM | 1.00 ± 0.04 | 63.7 ± 5.1% | 11.1 ± 0.9% | 632 ± 22.8 µM | 13.8 ± 1.2 µM | – | – | – | – | – | – | – | –
CC(=C(c1ccc(O)cc1)c1ccc(O)cc1)[c-]1cccc1.[Fe+2].c1ccc2nc(-[c-]3cccc3)ccc2c1 [compound 11, 1-(quinolin-2-yl)-1’-{1-[bis(4-hydroxyphenyl)methylene]ethyl}ferrocene, reference compound] | – | 57.8 ± 8.2 µM | – | – | – | – | – | – | 139 ± 15.7 µM | – | 50.9 ± 3.65 µM | – | – | – | – | – | – | –
C=C[c-]1cccc1.[Fe+2].c1ccc(-c2cccc(-[c-]3cccc3)n2)nc1 [7d, 1-(2,2′-Bipyridin-6-yl)-1′-Vinylferrocene] | 6.34 ± 0.51 µM | 158 ± 19.8 µM | 1.93 ± 0.06 | 5.8 ± 1.3% | 15.6 ± 0.7 µM | 1.36 ± 0.06 | 81.5 ± 4.9% | 9.7 ± 0.6% | 299 ± 21.9 µM | 7.94 ± 0.55 µM | – | – | – | – | – | – | – | –
C=C[c-]1cccc1.[Fe+2].c1ccc2nc(-[c-]3cccc3)ccc2c1 [7b, 1-(Quinolin-2-yl)-1′-Vinylferrocene] | 3.32 ± 0.23 µM | 287 ± 31.7 µM | 2.21 ± 0.02 | 29.8 ± 2.6% | 5.3 ± 0.2 µM | 4.4 ± 0.2 | 89.6 ± 6.2% | 7.7 ± 0.6% | 277 ± 14.8 µM | 3.68 ± 0.29 µM | – | – | 3.05 ± 0.18 µM | mixed type of inhibition | 1.92 ± 0.13 µM | 4.58 ± 0.27 µM | mixed type of inhibition | 2.77 ± 0.22 µM
CC(=C(c1ccc(O)cc1)c1ccc(O)cc1)[c-]1cccc1.[Fe+2].c1cc[cH-]c1 [compound 10, 1,1-bis(4-hydroxyphenyl)-2-ferrocenylprop-1-ene, reference compound] | – | 43.4 ± 6.7 µM | – | – | – | – | – | – | 104 ± 12.3 µM | – | 18.1 ± 2.1 µM | – | – | – | – | – | – | –
